How the values were obtained:
Zika virus [1] = assay: Antiviral activity against ZIKV BR infected in cervical cells; conditions: Cervical cell
[2] = Cytotoxicity against African green monkey Vero cells infected with ZIKV MR766 incubated for 48 hrs by immunofluorescence analysis; conditions: chlorocebus sabaeus, Vero cells infected with ZIKV PRVABC59
[3] = Selectivity index, ratio of CC50 for African green monkey Vero cells infected with ZIKV MR766 to EC50 for ZIKV MR766 infected in Vero cells
Zika virus [4] = assay: Antiviral activity against ZIKV MR766 infected in Vero cells measured after 48 hrs by immunofluorescence analysis
Cytochrome P450 2D6 = Cytochrome P450 2D6 (Homo sapiens, UniProt P10635); assay: Inhibition of CYP2D6 in human liver microsomes using dextromethorphan as substrate preincubated for 5 mins followed by substrate and NADPH addition and measured after 20 mins by LC-MS/MS analysis
[5] = Stability in human liver microsomes assessed as compound remaining at 1 uM incubated for 30 mins by LC-MS/MS analysis
[6] = Stability in rat liver microsomes assessed as compound remaining at 1 uM incubated for 30 mins by LC-MS/MS analysis
[7] = Plasma protein binding in mouse at 5 uM incubated for 4 hrs under shaking condition by LC-MS/MS analysis
hERG = hERG (Homo sapiens, UniProt Q12809); assay: Inhibition of hERG at 10 uM incubated for 2 hrs relative to control
[8] = Stability in mouse liver microsomes assessed as compound remaining at 1 uM incubated for 30 mins by LC-MS/MS analysis
[9] = Plasma protein binding in human at 5 uM incubated for 4 hrs under shaking condition by LC-MS/MS analysis
Zika virus [10] = assay: Antiviral activity against ZIKV infected in Vero E6 cells assessed as inhibition of viral replication; conditions: Vero C1008
[11] = Cytotoxicity against African green monkey Vero E6 cells; type: toxicity, cell-based, Vero C1008; conditions: chlorocebus sabaeus

Sequence of Cytochrome P450 2D6 (P10635 whole entry): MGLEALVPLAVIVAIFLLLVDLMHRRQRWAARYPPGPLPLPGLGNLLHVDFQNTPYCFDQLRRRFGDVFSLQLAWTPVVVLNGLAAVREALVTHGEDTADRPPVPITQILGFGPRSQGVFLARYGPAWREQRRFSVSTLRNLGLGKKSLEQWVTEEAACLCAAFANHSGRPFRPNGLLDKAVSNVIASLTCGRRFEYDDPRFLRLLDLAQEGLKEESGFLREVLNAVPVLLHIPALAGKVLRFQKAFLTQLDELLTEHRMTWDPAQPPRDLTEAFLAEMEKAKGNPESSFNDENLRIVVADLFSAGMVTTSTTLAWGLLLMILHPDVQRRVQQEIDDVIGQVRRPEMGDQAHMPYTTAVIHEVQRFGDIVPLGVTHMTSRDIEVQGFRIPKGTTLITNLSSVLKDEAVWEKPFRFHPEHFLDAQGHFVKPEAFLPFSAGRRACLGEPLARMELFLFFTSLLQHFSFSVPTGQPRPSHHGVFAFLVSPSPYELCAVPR
Sequence of hERG (Q12809 whole entry): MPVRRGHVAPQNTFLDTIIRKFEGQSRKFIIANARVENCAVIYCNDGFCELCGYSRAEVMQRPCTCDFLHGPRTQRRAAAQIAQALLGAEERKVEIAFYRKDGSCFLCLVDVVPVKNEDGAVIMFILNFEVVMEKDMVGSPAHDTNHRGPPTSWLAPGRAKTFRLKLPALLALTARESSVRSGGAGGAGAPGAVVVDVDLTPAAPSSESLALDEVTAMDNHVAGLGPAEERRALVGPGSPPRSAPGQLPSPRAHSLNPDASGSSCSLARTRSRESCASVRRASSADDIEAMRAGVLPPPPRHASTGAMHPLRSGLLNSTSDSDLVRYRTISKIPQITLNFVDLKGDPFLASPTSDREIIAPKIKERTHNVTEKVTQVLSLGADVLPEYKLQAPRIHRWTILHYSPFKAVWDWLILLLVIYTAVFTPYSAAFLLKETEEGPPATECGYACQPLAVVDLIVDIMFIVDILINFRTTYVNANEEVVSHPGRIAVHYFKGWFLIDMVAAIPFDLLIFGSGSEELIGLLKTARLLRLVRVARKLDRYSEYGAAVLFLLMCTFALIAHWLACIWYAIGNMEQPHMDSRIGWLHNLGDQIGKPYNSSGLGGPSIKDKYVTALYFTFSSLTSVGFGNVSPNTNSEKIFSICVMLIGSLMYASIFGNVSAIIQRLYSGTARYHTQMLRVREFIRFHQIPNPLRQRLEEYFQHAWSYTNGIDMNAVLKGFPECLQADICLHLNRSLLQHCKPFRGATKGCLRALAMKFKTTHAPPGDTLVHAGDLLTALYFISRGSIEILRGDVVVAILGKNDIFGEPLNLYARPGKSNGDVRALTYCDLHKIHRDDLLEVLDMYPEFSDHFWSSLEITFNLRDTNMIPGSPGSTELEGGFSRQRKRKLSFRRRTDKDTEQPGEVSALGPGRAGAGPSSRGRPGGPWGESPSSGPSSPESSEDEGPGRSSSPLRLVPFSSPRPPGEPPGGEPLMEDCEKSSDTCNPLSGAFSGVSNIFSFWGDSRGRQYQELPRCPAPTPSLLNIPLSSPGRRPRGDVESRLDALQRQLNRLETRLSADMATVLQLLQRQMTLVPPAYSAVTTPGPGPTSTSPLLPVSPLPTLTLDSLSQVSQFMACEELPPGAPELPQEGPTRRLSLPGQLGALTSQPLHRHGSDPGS

Structure (SMILES) | EC50 (Zika virus [4]) [µM] | CC50 at 48 h [2] [µM] | further results
O=S(=O)(NCCCCNc1ccnc2cc(Cl)ccc12)c1ccc(Cl)cc1 |  |  | EC50 (Zika virus [1]): 3.2 µM
FC(F)(F)c1cc(-c2cc(-c3ccc(NCc4cccnc4)cc3)no2)ccn1 |  | > 100 | 
N#Cc1ccc(-c2cc(-c3ccc(NCc4cccnc4)cc3)no2)cc1 |  | > 100 | IC50 (Cytochrome P450 2D6): > 99 µM
FC(F)(F)c1ccc(-c2cc(-c3ccc(NCc4cccnc4)cc3)no2)cc1 |  | > 100 | IC50 (Cytochrome P450 2D6): > 99 µM; remaining at 0.5 h, 1 µM [5]: 71.5%; remaining at 0.5 h, 1 µM [6]: 51.7%; fraction unbound at 4 h, 5 µM [7]: 0.003; inhibition at 2 h, 10 µM (hERG): 5.37%; remaining at 0.5 h, 1 µM [8]: 79.6%; fraction unbound at 4 h, 5 µM [9]: 0.0047
COc1ccccc1-c1cc(-c2ccc(NCc3cccnc3)cc2)no1 |  | > 100 | IC50 (Cytochrome P450 2D6): 27.1 µM
FC(F)(F)Oc1ccc(-c2cc(-c3ccc(NCc4cccnc4)cc3)no2)nc1 |  | > 100 | 
CCn1c2ccccc2c2cc(NC(=O)Nc3ccc(N)cc3C)ccc21 |  |  | EC50 (Zika virus [10]): 1.67 µM; CC50 [11]: > 12.5 µM
Fc1ccc(-c2cc(-c3ccc(NCc4cccnc4)cc3)no2)cc1 |  | > 100 | 
c1cncc(CNc2ccc(-c3cc(-c4cncnc4)on3)cc2)c1 |  | > 100 | IC50 (Cytochrome P450 2D6): 3.5 µM

Second part, led by results:

EC50 (Zika virus [4]) [µM] | Structure (SMILES) | CC50 at 48 h [2] [µM] | further results
36.8 | c1ccc(-c2nc(-c3ccc(NCc4cccnc4)cc3)c[nH]2)cc1 | 94.1 | selectivity ratio [3]: 2.6
5.3 | c1ccc(-c2noc(-c3ccc(NCc4cccnc4)cc3)n2)cc1 | 61.4 | selectivity ratio [3]: 11.6
> 100 | c1ccc(-c2nnc(-c3ccc(NCc4cccnc4)cc3)o2)cc1 | > 100 | 
> 100 | Cn1cc(-c2ccc(NCc3cccnc3)cc2)nc1-c1ccccc1 | > 100 | 
44.5 | FC(F)(F)Oc1ccccc1-c1cc(-c2ccc(NCc3cccnc3)cc2)no1 |  | 
3.3 | Fc1cccc(-c2cc(-c3ccc(NCc4cccnc4)cc3)no2)c1 |  | 
5.1 | c1ccc(-c2cnc(-c3ccc(NCc4cccnc4)cc3)o2)cc1 | 12.9 | selectivity ratio [3]: 2.5

Source: ChEMBL document CHEMBL5576159, “Discovery and structure-activity relationship study of novel isoxazole-based small molecules targeting Zika virus infections” (RSC Med Chem, 2024)
